The values that follow come from ChEMBL document CHEMBL1201862, “PubChem BioAssay data set” (2004).

In general, GI50 refers to the concentration at which growth is held to half of that of the control.

Structures are written as SMILES.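 Briefly, cells in 96-well plates were exposed to five compound concentrations for 48 h, and endpoints were estimated by linear interpolation. At the GI50, growth is halved.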 The source made the active and inactive calls. Rule as the data show it: active = GI50 up to about 1.1 µM and inactive = higher. A value given as a limit tells only on which side of the number the result lay.

Experiment in all cases: DTP human tumour cell line panel, 48 h
The test system of experiment [1] is BT-549.
The subject of experiment [2] is MDA-MB-231.
The test system of experiment [3] is NCI/ADR-RES.

Turning to `OCC1OC(n2cnc3c2N=CNC[C@H]3O)C(Cl)C1O` (stereo partly drawn), the GI50 in experiment [1], in experiment [2] and in experiment [3] was > 100 µM (inactive) throughout.
With `O=C(ON=C1c2ccccc2C(Br)C(Br)c2ccccc21)c1ccccc1` (stereo not drawn), the GI50 is 19.6 µM (inactive) in experiment [1], 16.7 µM (inactive) in experiment [2] and 22.8 µM (inactive) in experiment [3].
Regarding `O=c1/c(=C/c2ccccn2)sc2nc3cc4c(cc3n12)OCCO4`, the GI50 in experiment [1], in experiment [2] and in experiment [3] was > 100 µM (inactive) in each case.
In the case of `CC(=O)/C=C/C=C(\C)CC/C=C(\C)CC(C)C`, the GI50 in experiment [2] is 40.9 µM (inactive).
`CC(O)(/C=C/c1ccccc1)P(=O)(O)c1ccccc1` (stereo not drawn): the GI50 in experiment [3] was > 100 µM (inactive).
As to `Cc1ccc(S(=O)(=O)Oc2cc(S(=O)(=O)O)cc3cc(S(=O)(=O)O)cc(N)c23)cc1`, the GI50 in experiment [1], in experiment [2] and in experiment [3] was > 100 µM (inactive) throughout.
For the compound `CC(/C=N/N(C)C1=NCCCN1)=N/N(C)C1=NCCCN1`, the GI50 in experiment [1], in experiment [2] and in experiment [3] was > 100 µM (inactive) throughout.
With `Cc1nn(C(=O)c2ccccc2O)c2c1C(c1ccc(O)cc1O)SC(=N)N2` (stereo not drawn), the figures for the GI50 in experiment [1], in experiment [2] and in experiment [3] were 2.52 µM (inactive), 5.14 µM (inactive) and 3.33 µM (inactive), respectively.
For `c1ccc(Cc2cc(-c3ccccc3)[nH]n2)cc1`, the GI50 was 11.5 µM (inactive) in experiment [2] and 21.8 µM (inactive) in experiment [3].
Regarding `CC1=NN(c2ccccc2)C(=O)C1/N=N/c1ccc([As](=O)(O)O)c(O)c1` (stereo not drawn), the GI50 in experiment [1], in experiment [2] and in experiment [3] was > 100 µM (inactive) each time.
Consider `Cc1ccc(/N=C2\C(=N/c3ccc(C)cc3)N(c3ccc(C)cc3)C(=S)N2C(=O)c2ccccc2)cc1`, for which the GI50 in experiment [1], in experiment [2] and in experiment [3] was > 100 µM (inactive) in each case.
As for `Cc1cccc(C)c1N1C(=O)C2c3[nH]c4ccccc4c3C3CCC(C(C)(C)C)CC3C2C1=O` (stereo not drawn), the values for the GI50 in experiment [1], in experiment [2] and in experiment [3] were 20 µM (inactive), 11.9 µM (inactive) and 13.8 µM (inactive), respectively.
Regarding `CN(C)Cc1cc(C(=O)/C=C/c2ccc(Cl)c(Cl)c2)cc(CN(C)C)c1O`, the GI50 in experiment [2] was 2.68 µM (inactive); in experiment [3], 2.24 µM (inactive).
In the case of `CC1(C)OC2C(CO)OC(n3cnc(N)nc3=O)C2O1` (stereo not drawn), the GI50 in experiment [1], in experiment [2] and in experiment [3] was > 100 µM (inactive) in each case.
As for `CCOC1SC(SC)=NN1C(=O)C(OC(C)=O)C(OC(C)=O)C(OC(C)=O)C(OC(C)=O)C(=O)N1N=C(SC)SC1OCC` (stereo not drawn), the GI50 in experiment [1], in experiment [2] and in experiment [3] was > 100 µM (inactive) in each case.
For the compound `CC1(C)CCCCCCCCCC(C)(CCCO)C1=O` (stereo not drawn), the GI50 in experiment [1] was 17.7 µM (inactive); in experiment [2], 15.2 µM (inactive); in experiment [3] it was 16.6 µM (inactive).
On to `Cc1cccc2c1C/C(=C\c1cccc(C)c1C(=O)O)C2=O`, for which the GI50 in experiment [1] and in experiment [3] was > 100 µM (inactive) in each case.
For the compound `O=C(Cc1ccc(OCc2cccc(Cl)c2)cc1)NO`, the GI50 in experiment [1] was 26.2 µM (inactive); in experiment [2], 41.8 µM (inactive); in experiment [3] it was 12.2 µM (inactive).
As for `O=C(c1ccc(/N=C/c2ccccc2O)cc1)c1ccc(/N=C/c2ccccc2O)cc1`, the GI50 in experiment [1], in experiment [2] and in experiment [3] was > 100 µM (inactive) each time.
For the compound `COc1ccc2c(=O)c3cc([N+](=O)[O-])ccc3n(C)c2c1`, the GI50 in experiment [1], in experiment [2] and in experiment [3] was > 100 µM (inactive) each time.
`C(=N\N=C1NCCN1)/c1ccc2ccccc2c1`: the values for the GI50 in experiment [1], in experiment [2] and in experiment [3] were 5.53 µM (inactive), 16.4 µM (inactive) and 11.8 µM (inactive), respectively.
For `COC(=O)c1c(OC(C)=O)ccc2c1c1c(OC(C)=O)c3ccccc3c(OC(C)=O)c1n2Cc1ccccc1`, in that order: 4.76 µM (inactive), 4.09 µM (inactive) and 7.06 µM (inactive).
For the compound `CC(=O)OCC12C(OC(C)=O)C(=O)C3C(OC(C)=O)C14OC3(C)COC(=O)c1cccnc1C(C)C(C)C(=O)OC(C(OC(C)=O)C2OC(C)=O)C4(C)O` (stereo not drawn), the GI50 in experiment [1] and in experiment [2] was > 100 µM (inactive) in each case.
In the case of `CCCCCCCCCCCCCCC[C@@H](O)C[N+](C)(C)CCO`, the GI50 is 0.759 µM (active) in experiment [1], 1.8 µM (inactive) in experiment [2] and 13.6 µM (inactive) in experiment [3].
For `Cc1ccc(SCC(CF)OC(C)n2cnc3c(Cl)nc(N)nc32)cc1` (stereo not drawn), in that order: 16 µM (inactive), 46.6 µM (inactive) and 25.1 µM (inactive).
On to `O=C(O)c1ccc([N+](=O)[O-])c(P(=O)(O)O)c1`, for which the GI50 in experiment [1], in experiment [2] and in experiment [3] was > 100 µM (inactive) in each case.
As for `O=C(c1ccccc1)N(C(=O)c1ccccc1)c1nc(SCc2ccccc2)ns1`, the figures for the GI50 in experiment [1] and in experiment [3] were 28.8 µM (inactive) and 28.3 µM (inactive), respectively.
With `CC/C(Cl)=N\OC(=O)Nc1ccc(F)c([N+](=O)[O-])c1`, the GI50 was 16.7 µM (inactive) in experiment [1], 18.2 µM (inactive) in experiment [2] and 26.9 µM (inactive) in experiment [3].
As for `COC(=O)[C@H](C)NC(=O)[C@H](NS(=O)(=O)c1nc2ccccc2s1)c1ccccc1`, the GI50 in experiment [1] is 34.7 µM (inactive); in experiment [2], 25.9 µM (inactive); in experiment [3], 30.3 µM (inactive).
Regarding `O=C1c2ccccc2C(=O)c2c1ccc1nc3c(nc21)-c1c2ccccc2cc2cccc-3c12`, the GI50 in experiment [1] is 80.2 µM (inactive); in experiment [2], 74.1 µM (inactive); in experiment [3], 36.3 µM (inactive).
As to `O=c1[nH]c(N/N=C\C(O)C(O)C(O)CO)nc2ccccc12` (stereo not drawn), the GI50 in experiment [1] and in experiment [3] was > 100 µM (inactive) in each case.
In the case of `Cc1cc(C)c2ccc(N3CCNCC3)nc2n1`, the GI50 in experiment [1], in experiment [2] and in experiment [3] was > 100 µM (inactive) in each case.
`COc1ccc(-c2nc3ncccn3c2-c2ccc([S+](C)[O-])cc2)cc1` (stereo not drawn): the GI50 in experiment [1], in experiment [2] and in experiment [3] was > 100 µM (inactive) each time.
For the compound `Cc1ccc(/C(O)=C/c2nc3ccccc3oc2=O)cc1`, the GI50 in experiment [1] was 44.4 µM (inactive); in experiment [2], > 100 µM (inactive); in experiment [3] it was 25.5 µM (inactive).
Consider `C[N+]12CCCCC1C(CN1C(=O)Cc3c4ccccc4c(c4ccccc34)CC1=O)CCC2` (stereo not drawn), for which the GI50 in experiment [1], in experiment [2] and in experiment [3] was > 100 µM (inactive) each time.
For `CCC/C(Cl)=N\OC(=O)Nc1ccc(Br)cc1`, the GI50 was 17.7 µM (inactive) in experiment [1], 16.9 µM (inactive) in experiment [2] and 8.99 µM (inactive) in experiment [3].
In the case of `Nc1nc(=O)c2c([nH]1)NCC(CCNc1ccc(C(=O)O)cc1)N2` (stereo not drawn), the GI50 in experiment [1], in experiment [2] and in experiment [3] was > 100 µM (inactive) each time.
For the compound `C=CCOCn1cnc2c(N)ncnc21`, the GI50 in experiment [2] and in experiment [3] was > 100 µM (inactive) in each case.
